Four molecules from DBAASP can be followed below.

SMILES strings stand for the structures. ≈ marks a conversion by molar mass, not a printed value. Where “and” joins values, the source holds several entries; their conditions need not be identical. Equal values may be shown once.

Some test systems named below: Escherichia coli IS37#; Escherichia coli IS218#; Escherichia coli IS117#; Shigella dysenteriae; Escherichia coli MC1041; Escherichia coli; Escherichia coli JJ2489; Escherichia coli J2210; Escherichia coli JW0013; Escherichia coli HB101.
Common to all, as to test: ≥ marks a high value that may be exact or a test limit, other limits are often not marked, values filed in µg/mL are converted to µM
Experiment [1] has as its system Staphylococcus aureus IS10#.
The test system of experiment [2] is Staphylococcus aureus ATCC 25923.
Experiment [3] relates to Escherichia coli NCTC 10418.
Experiment [4] has as its system Enterococcus faecalis ATCC 29212.
Experiment [5] concerns Staphylococcus aureus NCTC 10788.
Experiment [6] deals with Klebsiella pneumoniae ATCC 700603.
In experiment [7] the test system is Candida albicans NCYC 1467.
Experiment [8] relates to Staphylococcus aureus IS37#.
The subject of experiment [9] is Enterobacter cloacae ATCC 13047.
Experiment [10] has as its system Pseudomonas aeruginosa CMCCB 1010.
In experiment [11] the test system is Pseudomonas aeruginosa ATCC 27853.
Experiment [12] concerns Candida parapsilosis ATCC 22019.
Experiment [13] has as its system Klebsiella pneumoniae IS59#.
Experiment [14] concerns Candida albicans ATCC 2002.
The test system of experiment [15] is Candida albicans ATCC 90028.
Experiment [16] deals with Escherichia coli ATCC 25922.
The test system of experiment [17] is Pseudomonas aeruginosa IS350#.
The test system of experiment [18] is Salmonella typhimurium SL1344.
For experiment [19], the system named is Salmonella enterica subsp. enterica serovar Infantis.
In experiment [20] the test system is Salmonella enterica subsp. enterica serovar Newport.
Experiment [21] deals with Escherichia coli JW0368 ΔsbmA.
Experiment [22] deals with Salmonella enterica subsp. enterica serovar Enteritidis MH91989.
Experiment [23] relates to Escherichia coli JW2778 ΔygdD.
In experiment [24] the test system is Salmonella enterica serovar Tennessee.
Experiment [25] has as its system Staphylococcus aureus KCTC 1621.
In experiment [26] the test system is Escherichia coli KCTC 1682.
The test system of experiment [27] is Staphylococcus aureus USA 100.
For experiment [28], the system named is Staphylococcus epidermidis KCTC 1917.
Experiment [29] relates to Pseudomonas aeruginosa KCTC 1637.
Experiment [30] concerns Staphylococcus aureus NCTC 12981.

In general, MIC refers to the least concentration at which growth counts as inhibited. `CC[C@H](C)[C@H](NC(=O)CNC(=O)[C@H](CO)NC(=O)[C@H](CC(C)C)NC(=O)[C@H](CC(C)C)NC(=O)CN)C(=O)N[C@@H](CC(C)C)C(=O)NCC(=O)N[C@@H](C)C(=O)NCC(=O)N[C@@H](CCCCN)C(=O)N[C@@H](CCCCN)C(=O)N[C@H](C(=O)N[C@H](C(=O)N[C@H]1CSSC[C@@H](C(=O)O)NC(=O)[C@H](CC(C)C)NC(=O)CNC(=O)[C@H](CO)NC(=O)[C@H](CC(C)C)NC(=O)CNC1=O)C(C)C)[C@@H](C)CC` [GLLSGILGAGKKIVCGLSGLC]: the MIC is 10.2 µM (≈ 20 µg/mL) in experiment [1]; 2.55 µM (≈ 4.99 µg/mL) in experiment [2]; 2.55 µM (≈ 4.99 µg/mL) in the experiment with Escherichia coli IS37#; 2.55 µM (≈ 4.99 µg/mL) in the experiment on Escherichia coli IS218#; at least 64 µM in experiment [3]; 5.1 µM (≈ 9.99 µg/mL) in [4]. Also, the MIC stood at 32 µM (≈ 62.6 µg/mL) in experiment [5]; 1.28 µM (≈ 2.5 µg/mL) in experiment [6]; 32 µM (≈ 62.6 µg/mL) in [7]; 10.2 µM (≈ 20 µg/mL) in experiment [8]; 5.1 µM (≈ 9.99 µg/mL) in experiment [9]; 1.28 µM (≈ 2.5 µg/mL) in [10]. The MIC came out at 2.55 µM (≈ 4.99 µg/mL) in [11]; 1.28 µM (≈ 2.5 µg/mL) in experiment [12]; 5.1 µM (≈ 9.99 µg/mL) in experiment [13]; 5.1 µM (≈ 9.99 µg/mL) against Escherichia coli IS117#; 0.51 µM (≈ 0.999 µg/mL) in [14]; 2.55 µM (≈ 4.99 µg/mL) in experiment [15]. In addition, the results for the MIC (in experiment [16]; in the experiment on Shigella dysenteriae; in [17]) were 5.1 µM (≈ 9.99 µg/mL), 2.55 µM (≈ 4.99 µg/mL) and 5.1 µM (≈ 9.99 µg/mL), respectively.

For `CC[C@H](C)[C@H](NC(=O)[C@@H]1CCCN1C(=O)[C@H](CCCN=C(N)N)NC(=O)[C@@H]1CCCN1C(=O)[C@@H]1CCCN1C(=O)[C@@H](NC(=O)[C@@H]1CCCN1C(=O)[C@H](CCCN=C(N)N)NC(=O)[C@@H]1CCCN1C(=O)[C@H](CC(C)C)NC(=O)[C@H](Cc1ccc(O)cc1)NC(=O)[C@H](CO)NC(=O)CNC(=O)[C@H](CCCCN)NC(=O)[C@H](CC(=O)O)NC(=O)[C@@H](N)C(C)C)[C@@H](C)O)C(=O)N[C@@H](Cc1ccc(O)cc1)C(=O)N[C@@H](CC(N)=O)C(=O)N[C@@H](CCCN=C(N)N)C(=O)N[C@@H](CC(N)=O)C(=O)O` [VDKGSYLPRPTPPRPIYNRN], the MIC is 1.2 µM (≈ 2.81 µg/mL) in experiment [18]; 0.416 µM (≈ 0.974 µg/mL) against Escherichia coli MC1041; 0.6 µM (≈ 1.4 µg/mL) in experiment [19]; 0.416 µM (≈ 0.974 µg/mL) in experiment [20]; > 0.416 µM and 0.6 µM with Escherichia coli; 2.4 µM (≈ 5.62 µg/mL) in experiment [21]. Also, the MIC in [22] came out at 1.2 µM (≈ 2.81 µg/mL); in the experiment with Escherichia coli JJ2489 it was 0.6 µM (≈ 1.4 µg/mL); in experiment [23], 0.6 µM (≈ 1.4 µg/mL); in the experiment on Escherichia coli J2210, 0.786 µM (≈ 1.84 µg/mL); in [24], 0.6 µM (≈ 1.4 µg/mL); in the experiment on Escherichia coli JW0013, 0.15 µM (≈ 0.351 µg/mL).

Regarding `NC(=O)[C@H](CCCN=C(N)N)NC(=O)[C@H](Cc1c[nH]c2ccccc12)NC(=O)[C@H](CCCN=C(N)N)NC(=O)[C@@H](N)Cc1c[nH]c2ccccc12` [WRWR], the MIC in experiment [25] was at least 45.5 µM; in [3], at least 182 µM; in [26] it was at least 45.5 µM; in [27] it was at least 50 µM; in experiment [28], 11.4 µM (≈ 7.99 µg/mL); in [29], at least 45.5 µM. Further, the MIC in [30] is at least 182 µM.

With `CC[C@H](C)[C@H](NC(=O)[C@H](CCCN=C(N)N)NC(=O)[C@@H](N)CCCN=C(N)N)C(=O)N[C@@H](CCCN=C(N)N)C(=O)N1CCC[C@H]1C(=O)N[C@@H](CCCN=C(N)N)C(=O)N1CCC[C@H]1C(=O)N1CCC[C@H]1C(=O)N[C@@H](CCCN=C(N)N)C(=O)N[C@@H](CC(C)C)C(=O)N1CCC[C@H]1C(=O)N[C@@H](CCCN=C(N)N)C(=O)N1CCC[C@H]1C(=O)N[C@@H](CCCN=C(N)N)C(=O)N1CCC[C@H]1C(=O)N[C@@H](CS)C(=O)O` [RRIRPRPPRLPRPRPC], the MIC (in experiment [16]; with Escherichia coli HB101) was 11.3 µM (≈ 22.9 µg/mL) in each case.
